Test results reported in a melting point compilation (Tetko et al.).

Row | Compound | melting point
1 | O=Cc1ccc(-c2ccc(F)cc2)s1 | 111 to 113 °C
2 | CCCn1c(N)cc(=O)n(C)c1=O | 166 to 168 °C
3 | Cc1nc(O)ccc1I | 209 to 211 °C
4 | Cc1csc(N2CCC(=O)CC2)n1 | 59 to 61 °C
5 | Nc1cccc(CN2CCSCC2)c1 | 87 to 89 °C
6 | O=C(CC(=O)Nc1cc(Cl)ccc1Cl)Nc1cc(Cl)ccc1Cl | 226 to 228 °C
7 | Cc1nc(-c2ccccc2)c(N)n1C | 145 to 147 °C
8 | CC1CN(c2ccccc2N)CC(C)O1 (stereo unspecified) | 83 to 85 °C
9 | COCCOc1ccc(C=O)cc1OC | 67 to 69 °C
10 | Cn1ncc(Cl)c(Cl)c1=O | 87 to 89 °C
11 | Cc1cccc(C)c1C=O | 27 to 30 °C
12 | Cc1cc(N)n(C2CCOC2)n1 (stereo unspecified) | 91 to 93 °C
13 | Cn1c(Cl)cnc1CC(N)=S | 142 to 144 °C
14 | Cn1cnc([N+](=O)[O-])c1Br | 177 to 179 °C
15 | Fc1cc2ncc(Cl)nc2cc1F | 91 to 93 °C
16 | Nc1ccc(Oc2cccc3cccnc23)cc1 | 203 to 205 °C
17 | COc1ccc(C=NO)cc1OC | 91 to 93 °C
18 | CCOC(=O)c1cnc2c(OC)ccc(OC)c2c1Cl | 87 to 89 °C
19 | Cc1ccc(-n2cc(C)cn2)c(N)c1 | 49 to 51 °C
20 | Sc1nnc(-c2cccs2)o1 | 162 to 164 °C
21 | COCCNc1nc2ccccc2[nH]1 | 170 to 172 °C

Row | Compound | melting point
22 | CCOC(=O)c1cc(C23CC4CC(CC(C4)C2)C3)[nH]n1 | 192 to 194 °C
23 | Nc1cc([N+](=O)[O-])c(F)cc1F | 98 to 100 °C
24 | Nc1ccc(OCC2CCOCC2)cc1 | 108 to 110 °C
25 | c1ccc2[nH]c(-c3ccncc3)cc2c1 | 208 to 210 °C
26 | CC(C)NO | 73 to 75 °C
27 | O=C(CCl)NC1CCN(C(=O)C2CCCCC2)CC1 | 133 to 135 °C
28 | N#CCc1cc(F)cc2c1OCOC2 | 75 to 77 °C
29 | C#CCNC(=O)CC#N | 108 to 110 °C
30 | COc1ccc(C2C(CO)CCC(=O)N2C)cc1 (stereo unspecified) | 119 to 121 °C
31 | O=C(O)CCn1cccn1 | 76 to 78 °C
32 | CCCCn1c(=O)[nH]c(=O)c2c1nc(CO)n2CCC | 134 to 136 °C
33 | c1ccc(NC2CCNC2)cc1 (stereo unspecified) | 77 to 79 °C
34 | COC(=O)C1CCN(c2nc3ccccc3o2)CC1 | 106 to 108 °C
35 | O=c1[nH]c(-c2ccc3c(c2)OCCO3)cs1 | 229 to 231 °C
36 | N#CCCN1CCS1(=O)=O | 52 to 54 °C
37 | CC(C)(C)c1ccc(-c2ccc(C=O)o2)cc1 | 70 to 72 °C
38 | COc1ccc(-c2csc(N)n2)cc1C | 179 to 181 °C
39 | CNC(C)(C#N)Cn1cc(Br)cn1 (stereo unspecified) | 33 to 35 °C
40 | CCCc1ccc2c(c1)C(=O)C(=O)N2 | 104 to 106 °C
41 | Brc1cnc2nc[nH]c2c1 | 217 to 219 °C
42 | c1ccc2cc(C3CO3)ccc2c1 (stereo unspecified) | 57 to 59 °C

Row | Compound | melting point
43 | CC1CC(C(F)(F)F)c2c(n(C)[nH]c2=O)N1 (stereo unspecified) | 202 to 204 °C
44 | O=C1NCCCc2cc(O)ccc21 | 219 to 221 °C
45 | N#Cc1ccccc1-c1ccc(CBr)cc1 | 127 to 129 °C
46 | O=C(O)C1(Cc2ccccc2)CC2CCC1C2 (stereo unspecified) | 89 to 91 °C
47 | O=[N+]([O-])c1ccc(Cl)c2cccnc12 | 130 to 138 °C
48 | Ic1n[nH]c2ccsc12 | 174 to 176 °C
49 | O=C(O)c1ccccc1OCc1cccnc1 | 160 to 162 °C
50 | CCC1Oc2c(Cl)cccc2NC1=O (stereo unspecified) | 139 to 141 °C
51 | Cc1ccc(C#N)c(Br)c1 | 50 to 55 °C
52 | CC1=NN(C2CCS(=O)(=O)C2)C(=O)C1 (stereo unspecified) | 185 to 187 °C
53 | CN1CC(=O)Nc2ccc(Cl)nc21 | 233 to 235 °C
54 | CC(C)S(=O)(=O)NCC1CCCNC1 (stereo unspecified) | 156 to 158 °C
55 | ClCc1nnnn1CC1CC1 | 30 to 32 °C
56 | CCc1nc(N)sc1C | 73 to 75 °C
57 | O=c1[nH]c2ccc(NCc3ccc(F)cc3)cc2[nH]1 | 251 to 253 °C
58 | CCNc1cc2c(nn1)CCNC2 | 140 to 142 °C
59 | O=[N+]([O-])c1cc(I)ccc1Cl | 71 to 73 °C
60 | CN1CCC(n2nccc2N)CC1 | 98 to 100 °C
61 | CCn1ccnc1C(O)CCc1ccccc1 (stereo unspecified) | 77 to 79 °C

Second part, the compound after the results:

Row | melting point | Compound
62 | 148 to 150 °C | COC(=O)c1n[nH]c(C)c1Br
63 | 129 to 131 °C | O=C(O)c1cn(-c2ccccc2C(F)(F)F)nn1
64 | 169 to 171 °C | CNS(=O)(=O)c1cc(N)ccc1OC
65 | 66 to 68 °C | CC(Cl)C(=O)NCc1ccccc1F (stereo unspecified)
66 | 135 to 137 °C | CC(NC(=O)c1ccc(Br)s1)C(=O)O (stereo unspecified)
67 | 128 to 130 °C | O=C(CCl)NC(=O)Nc1ccc2c(c1)OCCO2
68 | 107 to 109 °C | COc1ccccc1NC(=O)C(Br)C(C)C (stereo unspecified)
69 | 99 to 101 °C | CC(C)c1ccc(SC(C(=O)O)c2ccccc2)cc1 (stereo unspecified)
70 | 248 to 250 °C | O=C(O)CCNC(=O)Nc1ccc(Br)cc1
71 | 170 to 172 °C | Cc1c(N)cccc1N1CCCC1=O
72 | 115 to 117 °C | O=C(Cc1nc(CCl)cs1)Nc1ccccc1
73 | 276 to 278 °C | CNC(C(=O)O)c1ccc(F)cc1 (stereo unspecified)
74 | 230 to 232 °C | COc1ccc(C(=O)O)cc1S(=O)(=O)NCc1ccc(Cl)cc1
75 | 172 to 174 °C | CNC(=O)c1cnc(C)s1
76 | 292 to 294 °C | O=C(O)c1ccccc1C(=O)Nc1ccc(-c2ccccc2)cc1
77 | 86 to 88 °C | COC(=O)c1ccccc1NC(=O)OCC(F)(F)F
78 | 80 to 82 °C | COCCOc1cccc(C(=O)O)c1
79 | 169 to 171 °C | Nc1cc(C(=O)O)c(F)cc1F
80 | 57 to 59 °C | Cc1cccc(OCCNC(=O)C(C)Cl)c1 (stereo unspecified)
81 | 170 to 172 °C | CN(C(=O)c1cccc(C(=O)O)c1)c1ccccc1
82 | 246 to 248 °C | O=C1NC(=O)C2(CC(C(=O)O)C2)N1 (stereo unspecified)
83 | 103 to 105 °C | COC(=O)Nc1ccc(CN)cc1
84 | 145 to 147 °C | Cc1ccc(NC(=O)C2CCNCC2)nc1

Row | melting point | Compound
85 | 167 to 169 °C | NC(=O)Cc1nc2ccccc2s1
86 | 47 to 49 °C | COCCOc1cccc(CC(=O)O)c1
87 | 156 to 158 °C | CC(C)c1ccc(S(=O)(=O)Cc2ccoc2C(=O)O)cc1
88 | 286 to 288 °C | Cc1nc(-c2nnc[nH]2)sc1C(=O)O
89 | 105 to 107 °C | CN(C)c1ccc(CCC(=O)O)cc1
90 | 62 to 64 °C | CC(=O)Cn1cc(Br)cn1
91 | 105 to 115 °C | O=C(O)c1cc(S(=O)(=O)Cl)ccc1Cl
92 | 64 to 69 °C | O=C(O)Cc1ccco1
93 | 88 to 98 °C | NC(=O)NCCc1cccs1
94 | 179 to 181 °C | Cc1cc(=O)oc2cc(OCC(=O)NN)ccc12
95 | 98 to 100 °C | O=Cc1cccc(OCCC(=O)O)c1
96 | 129 to 131 °C | COc1ccc(S(=O)(=O)Cl)c(OC)c1C(=O)O
97 | 132 to 134 °C | CC(C)(C)C(=O)Nc1ccc(Cl)c(C(F)(F)F)c1
98 | 217 to 219 °C | O=C(O)c1cccc(C(=O)N2CCS(=O)(=O)CC2)n1
99 | 59 to 61 °C | CN(C)c1ccc(CNC(=O)CCl)cc1
100 | 155 to 157 °C | Cc1cc([N+](=O)[O-])ccc1S(N)(=O)=O
101 | 249 to 251 °C | CN(C)S(=O)(=O)c1ccc(C(=O)O)cc1
102 | 264 to 266 °C | N=C1NS(=O)(=O)Cc2ccccc21
103 | 152 to 154 °C | CC(C)Oc1ccc(C(N)=S)cc1
104 | 219 to 221 °C | Nc1ccccc1N1C(=O)c2ccc(Br)cc2C1=O
105 | 96 to 98 °C | O=C(CBr)CS(=O)(=O)c1ccccc1
106 | 52 to 54 °C | NCCCNC(=O)c1cccc(Br)c1
